# Patent US20150087627A1, “COMBINATION OF KINASE INHIBITORS AND USES THEREOF” (Intellikine LLC, priority 2011, published 2015)
# Tests used:
# Type in all cases: biochemical
# PI3K γ (p110γ) = molecular target: T1, PI3K γ (p110γ) (Homo sapiens, UniProt P48736); experiment: PI 3-Kinase (human) HTRF assay, PI3K γ; details: read-out: PI3K γ IC50
# T1 construct: purchased Upstate / Millipore Corporation
# mTOR = molecular target: T2, mTOR (Homo sapiens, UniProt P42345); experiment: mTOR kinase inhibition assay (radiometric or LanthaScreen TR-FRET); details: read-out: mTORC IC50
# T2 construct: purchased Invitrogen
# PI3K α (p110α/p85α) = molecular target: T3, PI3K α (p110α/p85α) (Homo sapiens, UniProt P42336); experiment: PI 3-Kinase (human) HTRF assay, PI3K α; details: read-out: PI3K α IC50
# T3 construct: purchased Upstate / Millipore Corporation
# PI3K β (p110β/p85α) = molecular target: T4, PI3K β (p110β/p85α) (Homo sapiens, UniProt P42338); experiment: PI 3-Kinase (human) HTRF assay, PI3K β; details: read-out: PI3K β IC50
# T4 construct: purchased Upstate / Millipore Corporation
# PI3K δ = molecular target: T5, PI3K δ (Homo sapiens, UniProt O00329); experiment: PI 3-Kinase (human) HTRF assay, PI3K δ; details: read-out: PI3K δ IC50
# T5 construct: purchased Upstate / Millipore Corporation
# T5 sequence (O00329 whole entry): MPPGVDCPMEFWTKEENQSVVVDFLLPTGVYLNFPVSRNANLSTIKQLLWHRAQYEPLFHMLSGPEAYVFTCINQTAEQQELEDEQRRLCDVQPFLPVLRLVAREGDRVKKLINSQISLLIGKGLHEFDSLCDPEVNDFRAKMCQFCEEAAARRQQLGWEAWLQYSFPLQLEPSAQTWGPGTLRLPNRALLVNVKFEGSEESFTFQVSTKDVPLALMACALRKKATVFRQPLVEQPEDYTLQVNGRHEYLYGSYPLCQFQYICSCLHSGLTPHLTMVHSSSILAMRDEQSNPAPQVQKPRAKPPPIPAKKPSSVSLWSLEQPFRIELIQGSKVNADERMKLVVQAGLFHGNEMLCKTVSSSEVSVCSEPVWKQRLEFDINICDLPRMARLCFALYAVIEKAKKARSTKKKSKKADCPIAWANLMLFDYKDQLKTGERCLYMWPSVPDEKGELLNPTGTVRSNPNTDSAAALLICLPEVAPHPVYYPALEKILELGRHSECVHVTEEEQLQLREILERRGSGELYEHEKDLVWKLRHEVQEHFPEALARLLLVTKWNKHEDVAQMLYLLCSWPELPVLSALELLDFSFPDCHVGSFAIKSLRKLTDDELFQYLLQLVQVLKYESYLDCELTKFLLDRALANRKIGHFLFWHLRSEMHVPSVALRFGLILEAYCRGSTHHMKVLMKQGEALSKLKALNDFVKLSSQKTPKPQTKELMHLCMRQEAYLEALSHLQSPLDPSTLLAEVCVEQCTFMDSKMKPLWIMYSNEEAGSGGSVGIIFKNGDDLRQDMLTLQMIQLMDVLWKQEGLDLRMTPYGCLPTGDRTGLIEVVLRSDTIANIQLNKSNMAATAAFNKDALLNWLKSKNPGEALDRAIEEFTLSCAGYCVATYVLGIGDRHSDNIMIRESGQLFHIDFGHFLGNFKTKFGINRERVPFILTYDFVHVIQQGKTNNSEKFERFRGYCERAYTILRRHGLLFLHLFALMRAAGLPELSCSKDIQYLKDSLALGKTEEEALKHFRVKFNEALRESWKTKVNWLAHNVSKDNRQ
# T5 sequence (P27986 whole entry partner): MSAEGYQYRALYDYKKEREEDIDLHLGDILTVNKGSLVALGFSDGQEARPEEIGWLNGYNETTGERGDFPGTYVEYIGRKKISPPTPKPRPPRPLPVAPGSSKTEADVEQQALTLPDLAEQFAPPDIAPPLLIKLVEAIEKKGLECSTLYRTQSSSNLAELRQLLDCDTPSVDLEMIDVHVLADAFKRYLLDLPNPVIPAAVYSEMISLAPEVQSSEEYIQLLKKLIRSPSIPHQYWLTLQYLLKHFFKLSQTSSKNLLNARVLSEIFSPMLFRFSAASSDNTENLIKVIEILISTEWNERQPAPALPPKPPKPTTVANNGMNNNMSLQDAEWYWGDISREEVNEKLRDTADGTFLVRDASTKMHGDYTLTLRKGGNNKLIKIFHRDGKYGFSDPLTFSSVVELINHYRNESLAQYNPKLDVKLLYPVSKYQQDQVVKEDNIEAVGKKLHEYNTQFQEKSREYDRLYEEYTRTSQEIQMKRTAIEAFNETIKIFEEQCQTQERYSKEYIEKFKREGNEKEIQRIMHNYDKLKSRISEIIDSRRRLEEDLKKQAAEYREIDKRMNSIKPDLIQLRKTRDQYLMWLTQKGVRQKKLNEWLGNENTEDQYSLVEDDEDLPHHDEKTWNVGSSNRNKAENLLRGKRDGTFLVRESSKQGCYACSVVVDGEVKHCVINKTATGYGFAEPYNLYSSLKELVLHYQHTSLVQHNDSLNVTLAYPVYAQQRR
# Method: Briefly, the assay is a time resolved FRET assay that indirectly measures PIP3 product formed by the activity of a PI3-K. The kinase reaction is performed in a microtiter plate (e.g., a 384 well microtiter plate). The total reaction volume is approximately 20 ul per well. In the first step, each well receives 2 ul of test compound in 20% dimethylsulphoxide resulting in a 2% DMSO final concentration. […] The plate is sealed and incubated for 15 minutes at room temperature. […] The plate is sealed and incubated for 1 hour at room temperature. The reaction is stopped by adding 5 ul of Stop Solution per well and then 5 ul of Detection Mix is added per well. The plate is sealed, incubated for 1 hour at room temperature, and then read on an appropriate plate reader. Data is analyzed and IC50s are generated using GraphPad Prism 5.
# T4 sequence (P42338 whole entry): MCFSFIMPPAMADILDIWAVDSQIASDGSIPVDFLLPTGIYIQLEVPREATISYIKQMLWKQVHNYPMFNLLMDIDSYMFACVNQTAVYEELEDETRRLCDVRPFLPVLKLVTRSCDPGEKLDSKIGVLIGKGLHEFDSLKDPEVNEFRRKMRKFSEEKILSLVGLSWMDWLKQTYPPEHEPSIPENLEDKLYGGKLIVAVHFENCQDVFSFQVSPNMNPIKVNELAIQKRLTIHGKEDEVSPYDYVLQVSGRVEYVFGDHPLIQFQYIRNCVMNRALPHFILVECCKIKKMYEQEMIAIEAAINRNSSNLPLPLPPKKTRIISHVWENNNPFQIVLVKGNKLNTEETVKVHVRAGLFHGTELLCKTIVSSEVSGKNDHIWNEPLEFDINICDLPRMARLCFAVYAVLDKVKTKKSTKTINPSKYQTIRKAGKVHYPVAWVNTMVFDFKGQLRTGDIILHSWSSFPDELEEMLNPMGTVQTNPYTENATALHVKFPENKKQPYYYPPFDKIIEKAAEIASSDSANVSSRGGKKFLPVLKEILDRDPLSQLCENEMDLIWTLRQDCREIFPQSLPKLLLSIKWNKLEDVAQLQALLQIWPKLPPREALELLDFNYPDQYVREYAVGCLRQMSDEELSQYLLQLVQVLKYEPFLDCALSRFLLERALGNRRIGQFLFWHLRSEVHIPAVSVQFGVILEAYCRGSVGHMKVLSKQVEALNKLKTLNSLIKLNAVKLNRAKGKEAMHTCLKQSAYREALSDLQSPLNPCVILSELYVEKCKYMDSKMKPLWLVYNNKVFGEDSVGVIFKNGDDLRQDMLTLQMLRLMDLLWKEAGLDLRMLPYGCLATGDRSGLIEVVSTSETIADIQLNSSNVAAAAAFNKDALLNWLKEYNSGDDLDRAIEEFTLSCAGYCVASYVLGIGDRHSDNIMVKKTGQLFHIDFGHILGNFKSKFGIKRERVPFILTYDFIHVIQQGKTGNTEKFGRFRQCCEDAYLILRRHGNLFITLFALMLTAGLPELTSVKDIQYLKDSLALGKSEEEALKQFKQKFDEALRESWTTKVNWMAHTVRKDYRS
# T4 sequence (P27986 whole entry partner): as the sequence (P27986 whole entry partner) above
# T2 sequence (P42345 1360-2549 limits assumed): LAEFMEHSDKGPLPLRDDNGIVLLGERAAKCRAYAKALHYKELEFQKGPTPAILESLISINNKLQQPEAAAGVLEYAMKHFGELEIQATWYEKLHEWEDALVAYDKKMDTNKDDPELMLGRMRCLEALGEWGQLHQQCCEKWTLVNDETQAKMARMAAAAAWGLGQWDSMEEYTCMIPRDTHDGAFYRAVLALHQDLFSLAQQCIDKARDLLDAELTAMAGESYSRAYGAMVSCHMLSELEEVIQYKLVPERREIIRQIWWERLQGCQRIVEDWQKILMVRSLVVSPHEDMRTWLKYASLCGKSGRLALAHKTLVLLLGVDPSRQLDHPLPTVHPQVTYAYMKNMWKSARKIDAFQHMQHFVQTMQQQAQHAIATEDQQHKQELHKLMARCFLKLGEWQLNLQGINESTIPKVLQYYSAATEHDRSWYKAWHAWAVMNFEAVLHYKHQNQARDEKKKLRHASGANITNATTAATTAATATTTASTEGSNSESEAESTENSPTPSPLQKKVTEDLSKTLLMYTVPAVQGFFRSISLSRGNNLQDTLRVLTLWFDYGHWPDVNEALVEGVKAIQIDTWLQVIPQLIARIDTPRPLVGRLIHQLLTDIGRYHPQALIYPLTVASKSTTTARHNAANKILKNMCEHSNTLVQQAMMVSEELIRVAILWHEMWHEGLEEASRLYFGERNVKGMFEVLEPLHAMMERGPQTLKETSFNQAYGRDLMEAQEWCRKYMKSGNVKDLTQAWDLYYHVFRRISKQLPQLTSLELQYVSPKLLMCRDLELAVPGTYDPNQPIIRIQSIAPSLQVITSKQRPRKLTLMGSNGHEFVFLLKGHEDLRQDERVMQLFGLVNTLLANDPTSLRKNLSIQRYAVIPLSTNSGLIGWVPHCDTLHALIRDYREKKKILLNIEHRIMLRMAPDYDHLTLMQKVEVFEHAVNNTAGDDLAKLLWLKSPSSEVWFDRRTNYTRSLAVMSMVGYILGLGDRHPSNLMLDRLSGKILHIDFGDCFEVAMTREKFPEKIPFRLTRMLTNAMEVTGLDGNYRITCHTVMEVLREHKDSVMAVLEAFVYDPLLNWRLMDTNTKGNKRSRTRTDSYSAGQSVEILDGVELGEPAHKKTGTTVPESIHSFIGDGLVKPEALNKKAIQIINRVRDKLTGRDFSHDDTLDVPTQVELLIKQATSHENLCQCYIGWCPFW
Structure (SMILES),IC50 (PI3K γ (p110γ)),IC50 (mTOR),IC50 (PI3K α (p110α/p85α)),IC50 (PI3K β (p110β/p85α)),IC50 (PI3K δ)
Nc1nc2cc(-c3ccc4ncc(N5CCN(C(=O)[C@@H](N)CO)CC5)nc4c3)ccc2o1 [Compound 298],< 10 µM,< 10 µM,< 0.1 µM,< 1 µM,< 10 µM
CN1CCN(C2CN(C(=O)c3cnc4ccc(-c5ccc6oc(N)nc6c5)cn34)C2)CC1 [Compound 303],> 10 µM,< 10 µM,< 0.1 µM,> 10 µM,< 10 µM
Nc1nc2cc(-c3ccc4ncc(N5CC(N6CCN(C7CC7)CC6)C5)nc4c3)ccc2o1 [Compound 313],< 10 µM,< 10 µM,< 0.1 µM,< 10 µM,< 10 µM
Nc1nc2cc(-c3ccc4ncc(N5CC(N6CC[C@@H](O)C6)C5)nc4c3)ccc2o1 [Compound 315],< 10 µM,< 1 µM,< 0.1 µM,< 10 µM,< 10 µM
Nc1nc2cc(-c3ccc4ncc(N5CC(n6cccn6)C5)nc4c3)ccc2o1 [Compound 318],< 1 µM,< 1 µM,< 0.1 µM,< 10 µM,> 10 µM
Cc1ccn(C2CN(c3cnc4ccc(-c5ccc6oc(N)nc6c5)cc4n3)C2)n1 [Compound 320],< 10 µM,> 10 µM,< 0.1 µM,< 10 µM,< 10 µM
CN1CCN(C2CN(c3cnc4ccc(-c5ccc6oc(N)nc6c5)cc4n3)C2)CC1=O [Compound 323],< 1 µM,> 10 µM,< 0.1 µM,< 10 µM,< 10 µM
CCN(CC)C1CN(c2cnc3ccc(-c4ccc5oc(N)nc5c4)cc3n2)C1 [Compound 324],< 1 µM,> 10 µM,< 0.1 µM,< 10 µM,< 10 µM
Nc1nc2cc(-c3ccc4ncc(N5CC(N6CCNCC6)C5)nc4c3)ccc2o1 [Compound 326],< 1 µM,> 10 µM,< 0.1 µM,< 1 µM,< 1 µM
CC(=O)N1CCN(C2CN(c3cnc4ccc(-c5ccc6oc(N)nc6c5)cc4n3)C2)CC1 [Compound 327],< 1 µM,> 10 µM,< 0.1 µM,< 10 µM,< 1 µM
CS(=O)(=O)N1CCN(C2CN(c3cnc4ccc(-c5ccc6oc(N)nc6c5)cc4n3)C2)CC1 [Compound 328],< 10 µM,> 10 µM,< 0.1 µM,< 10 µM,< 10 µM
CCN1CCN(C2CN(c3cnc4ccc(-c5ccc6oc(N)nc6c5)cc4n3)C2)CC1 [Compound 329],< 10 µM,> 10 µM,< 0.1 µM,< 1 µM,< 1 µM
COC(=O)N1CCC(n2ncc3c(N4CCOCC4)nc(-c4ccc5oc(N)nc5c4)nc32)CC1 [Compound 330],> 10 µM,< 1 µM,< 1 µM,< 10 µM,> 10 µM
CC(C)N1CCN(C2CN(c3cnc4ccc(-c5ccc6oc(N)nc6c5)cc4n3)C2)CC1 [Compound 331],< 10 µM,> 10 µM,< 0.1 µM,< 10 µM,< 10 µM
Nc1nc2cc(-c3ccc4ncc(N5CC(N6CCN(CCO)CC6)C5)nc4c3)ccc2o1 [Compound 333],< 10 µM,> 10 µM,< 0.1 µM,< 10 µM,< 1 µM
Nc1nc2cc(-c3ccc4ncc(N5CC(N6CCN(CC7CC7)CC6)C5)nc4c3)ccc2o1 [Compound 335],> 10 µM,> 10 µM,< 0.1 µM,< 10 µM,< 10 µM
Nc1nc2cc(-c3ccc4ncc(N5CCC(n6ccnc6)CC5)nc4c3)ccc2o1 [Compound 345],< 1 µM,< 10 µM,< 0.1 µM,< 1 µM,< 1 µM
Nc1nc2cc(-c3nc(N4CCOCC4)c4cnn(C5CCNCC5)c4n3)ccc2o1 [Compound 348],< 1 µM,< 1 µM,< 1 µM,< 0.1 µM,< 10 µM
